In ChEMBL document CHEMBL3045111, “Synthesis and herbicidal activities of novel 3-(substituted benzyloxy or phenoxy)-6-methyl-4-(3-trifluoromethylphenyl)pyridazine derivatives” (2012):
Calls of active or inactive are those of the source. The calls are words filed in the database; no cut-off is given here.

Tests used:
[1] = test system: Brassica rapa subsp. oleifera; test: Post-emergence herbicidal activity against one-leaf stage Brassica rapa subsp. oleifera under greenhouse condition at 150 g /ha measured after 24 days by spray method; type: functional; conditions: 576 h, read-out: GI
Amaranthus retroflexus [2] = test: Post-emergence herbicidal activity against one-leaf stage Amaranthus retroflexus under greenhouse condition assessed as complete bleaching of leaves at 600 g /ha measured after 24 days by spray method; type: functional, organism-based
[3] = test system: Brassica rapa subsp. oleifera; test: Post-emergence herbicidal activity against one-leaf stage Brassica rapa subsp. oleifera under greenhouse condition at 15 g /ha measured after 24 days by spray method; type: functional; conditions: 576 h, read-out: GI
[4] = test system: Brassica rapa subsp. oleifera; test: Post-emergence herbicidal activity against one-leaf stage Brassica rapa subsp. oleifera under greenhouse condition at 7.5 g /ha measured after 24 days by spray method; type: functional; conditions: 576 h, read-out: GI
Amaranthus retroflexus [5] = test: Post-emergence herbicidal activity against one-leaf stage Amaranthus retroflexus under greenhouse condition assessed as complete bleaching of leaves at 150 g /ha measured after 24 days by spray method; type: functional, organism-based
[6] = test system: Brassica rapa subsp. oleifera; test: Post-emergence herbicidal activity against one-leaf stage Brassica rapa subsp. oleifera under greenhouse condition assessed as complete bleaching of leaves at 150 g /ha measured after 24 days by spray method; type: functional, organism-based
Amaranthus retroflexus [7] = test: Post-emergence herbicidal activity against one-leaf stage Amaranthus retroflexus under greenhouse condition at 600 g /ha measured after 24 days by spray method; type: functional; conditions: 576 h, read-out: GI
Amaranthus retroflexus [8] = test: Post-emergence herbicidal activity against one-leaf stage Amaranthus retroflexus under greenhouse condition assessed as complete bleaching of leaves at 7.5 g /ha measured after 24 days by spray method; type: functional, organism-based
[9] = test system: Brassica rapa subsp. oleifera; test: Post-emergence herbicidal activity against one-leaf stage Brassica rapa subsp. oleifera under greenhouse condition at 600 g /ha measured after 24 days by spray method; type: functional; conditions: 576 h, read-out: GI
[10] = test system: Brassica rapa subsp. oleifera; test: Post-emergence herbicidal activity against one-leaf stage Brassica rapa subsp. oleifera under greenhouse condition assessed as complete bleaching of leaves at 600 g /ha measured after 24 days by spray method; type: functional, organism-based
[11] = test system: Brassica rapa subsp. oleifera; test: Post-emergence herbicidal activity against one-leaf stage Brassica rapa subsp. oleifera under greenhouse condition at 30 g /ha measured after 24 days by spray method; type: functional; conditions: 576 h, read-out: GI
Amaranthus retroflexus [12] = test: Post-emergence herbicidal activity against one-leaf stage Amaranthus retroflexus under greenhouse condition at 30 g /ha measured after 24 days by spray method; type: functional; conditions: 576 h, read-out: GI
[13] = test system: Brassica rapa subsp. oleifera; test: Pre-emergence herbicidal activity against Brassica rapa subsp. oleifera under greenhouse condition at 750 g /ha measured after 24 days by spray method; type: functional; conditions: 576 h, read-out: GI
Amaranthus retroflexus [14] = test: Post-emergence herbicidal activity against one-leaf stage Amaranthus retroflexus under greenhouse condition at 300 g /ha measured after 24 days by spray method; type: functional; conditions: 576 h, read-out: GI
Amaranthus retroflexus [15] = test: Post-emergence herbicidal activity against one-leaf stage Amaranthus retroflexus under greenhouse condition assessed as complete bleaching of leaves at 15 g /ha measured after 24 days by spray method; type: functional, organism-based
Amaranthus retroflexus [16] = test: Post-emergence herbicidal activity against one-leaf stage Amaranthus retroflexus under greenhouse condition at 150 g /ha measured after 24 days by spray method; type: functional; conditions: 576 h, read-out: GI
Amaranthus retroflexus [17] = test: Post-emergence herbicidal activity against one-leaf stage Amaranthus retroflexus under greenhouse condition assessed as complete bleaching of leaves at 300 g /ha measured after 24 days by spray method; type: functional, organism-based
Spirodela polyrhiza [18] = test: Bleaching herbicidal activity in Spirodela polyrhiza fronds cultured in compound-containing in medium assessed as chlorophyll inhibition at 10 ug/ml after 7 days; type: functional; conditions: 168 h
Amaranthus retroflexus [19] = test: Post-emergence herbicidal activity against one-leaf stage Amaranthus retroflexus under greenhouse condition at 60 g /ha measured after 24 days by spray method; type: functional; conditions: 576 h, read-out: GI
Echinochloa crus-galli [20] = test: Pre-emergence herbicidal activity against Echinochloa crus-galli (barnyard grass) under greenhouse condition at 750 g /ha measured after 24 days by spray method; type: functional; conditions: 576 h, read-out: GI
Amaranthus retroflexus [21] = test: Post-emergence herbicidal activity against one-leaf stage Amaranthus retroflexus under greenhouse condition assessed as complete bleaching of leaves at 75 g /ha measured after 24 days by spray method; type: functional, organism-based
Spirodela polyrhiza [22] = test: Bleaching herbicidal activity in Spirodela polyrhiza fronds cultured in compound-containing in medium assessed as chlorophyll inhibition at 1 ug/ml after 7 days; type: functional; conditions: 168 h
Echinochloa crus-galli [23] = test: Post-emergence herbicidal activity against one-leaf stage of Echinochloa crus-galli (barnyard grass) under greenhouse condition at 750 g /ha measured after 24 days by spray method; type: functional; conditions: 576 h, read-out: GI
Amaranthus retroflexus [24] = test: Pre-emergence herbicidal activity against Amaranthus retroflexus under greenhouse condition at 750 g /ha measured after 24 days by spray method; type: functional; conditions: 576 h, read-out: GI
Amaranthus retroflexus [25] = test: Post-emergence herbicidal activity against one-leaf stage Amaranthus retroflexus under greenhouse condition at 75 g /ha measured after 24 days by spray method; type: functional; conditions: 576 h, read-out: GI
[26] = test system: Brassica rapa subsp. oleifera; test: Post-emergence herbicidal activity against one-leaf stage Brassica rapa subsp. oleifera under greenhouse condition assessed as complete bleaching of leaves at 30 g /ha measured after 24 days by spray method; type: functional, organism-based
[27] = test system: Brassica rapa subsp. oleifera; test: Post-emergence herbicidal activity against one-leaf stage Brassica rapa subsp. oleifera under greenhouse condition assessed as complete bleaching of leaves at 75 g /ha measured after 24 days by spray method; type: functional, organism-based
[28] = test system: Brassica rapa subsp. oleifera; test: Post-emergence herbicidal activity against one-leaf stage Brassica rapa subsp. oleifera under greenhouse condition assessed as complete bleaching of leaves at 15 g /ha measured after 24 days by spray method; type: functional, organism-based
Amaranthus retroflexus [29] = test: Post-emergence herbicidal activity against one-leaf stage of Amaranthus retroflexus under greenhouse condition at 750 g /ha measured after 24 days by spray method; type: functional; conditions: 576 h, read-out: GI
Amaranthus retroflexus [30] = test: Post-emergence herbicidal activity against one-leaf stage Amaranthus retroflexus under greenhouse condition at 7.5 g /ha measured after 24 days by spray method; type: functional; conditions: 576 h, read-out: GI
[31] = test system: Brassica rapa subsp. oleifera; test: Post-emergence herbicidal activity against one-leaf stage Brassica rapa subsp. oleifera under greenhouse condition at 75 g /ha measured after 24 days by spray method; type: functional; conditions: 576 h, read-out: GI
[32] = test system: Brassica rapa subsp. oleifera; test: Post-emergence herbicidal activity against one-leaf stage Brassica rapa subsp. oleifera under greenhouse condition at 300 g /ha measured after 24 days by spray method; type: functional; conditions: 576 h, read-out: GI
[33] = test system: Brassica rapa subsp. oleifera; test: Post-emergence herbicidal activity against one-leaf stage Brassica rapa subsp. oleifera under greenhouse condition assessed as complete bleaching of leaves at 7.5 g /ha measured after 24 days by spray method; type: functional, organism-based
Amaranthus retroflexus [34] = test: Post-emergence herbicidal activity against one-leaf stage Amaranthus retroflexus under greenhouse condition at 15 g /ha measured after 24 days by spray method; type: functional; conditions: 576 h, read-out: GI
Digitaria [35] = test: Post-emergence herbicidal activity against one-leaf stage of Digitaria adscendens under greenhouse condition at 750 g /ha measured after 24 days by spray method; type: functional; conditions: in Digitaria adscendens, 576 h, read-out: GI
[36] = test system: Brassica rapa subsp. oleifera; test: Post-emergence herbicidal activity against one-leaf stage Brassica rapa subsp. oleifera under greenhouse condition at 750 g /ha measured after 24 days by spray method; type: functional; conditions: 576 h, read-out: GI
Amaranthus retroflexus [37] = test: Post-emergence herbicidal activity against one-leaf stage Amaranthus retroflexus under greenhouse condition assessed as complete bleaching of leaves at 30 g /ha measured after 24 days by spray method; type: functional, organism-based
[38] = test system: Brassica rapa subsp. oleifera; test: Post-emergence herbicidal activity against one-leaf stage Brassica rapa subsp. oleifera under greenhouse condition assessed as complete bleaching of leaves at 300 g /ha measured after 24 days by spray method; type: functional, organism-based
[39] = test system: Brassica rapa subsp. oleifera; test: Post-emergence herbicidal activity against one-leaf stage Brassica rapa subsp. oleifera under greenhouse condition at 60 g /ha measured after 24 days by spray method; type: functional; conditions: 576 h, read-out: GI
Amaranthus retroflexus [40] = test: Post-emergence herbicidal activity against one-leaf stage Amaranthus retroflexus under greenhouse condition assessed as complete bleaching of leaves at 60 g /ha measured after 24 days by spray method; type: functional, organism-based
Digitaria [41] = test: Pre-emergence herbicidal activity against Digitaria adscendens under greenhouse condition at 750 g /ha measured after 24 days by spray method; type: functional; conditions: in Digitaria adscendens, 576 h, read-out: GI
[42] = test system: Brassica rapa subsp. oleifera; test: Post-emergence herbicidal activity against one-leaf stage Brassica rapa subsp. oleifera under greenhouse condition assessed as complete bleaching of leaves at 60 g /ha measured after 24 days by spray method; type: functional, organism-based

Cc1cc(-c2cccc(C(F)(F)F)c2)c(Oc2ccc(Cl)c(Cl)c2)nn1
inhibition of growth at 150 g/ha [1]: 100%
Activity (Amaranthus retroflexus [2]): Active
inhibition of growth at 15 g/ha [3]: 89%
inhibition of growth at 7.5 g/ha [4]: 58%
Activity (Amaranthus retroflexus [5]): Active
Activity [6]: Active
inhibition of growth at 600 g/ha (Amaranthus retroflexus [7]): 100%
Activity (Amaranthus retroflexus [8]): Active
inhibition of growth at 600 g/ha [9]: 100%
Activity [10]: Active
inhibition of growth at 30 g/ha [11]: 100%
inhibition of growth at 30 g/ha (Amaranthus retroflexus [12]): 42%
inhibition of growth at 750 g/ha [13]: 27%
inhibition of growth at 300 g/ha (Amaranthus retroflexus [14]): 100%
Activity (Amaranthus retroflexus [15]): Active
inhibition of growth at 150 g/ha (Amaranthus retroflexus [16]): 100%
Activity (Amaranthus retroflexus [17]): Active
inhibition at 10 µg/mL (Spirodela polyrhiza [18]): 96%
inhibition of growth at 60 g/ha (Amaranthus retroflexus [19]): 47%
inhibition of growth at 750 g/ha (Echinochloa crus-galli [20]): 19%
Activity (Amaranthus retroflexus [21]): Active
inhibition at 1 µg/mL (Spirodela polyrhiza [22]): 93%
inhibition of growth at 750 g/ha (Echinochloa crus-galli [23]): 87%
inhibition of growth at 750 g/ha (Amaranthus retroflexus [24]): 0%
inhibition of growth at 75 g/ha (Amaranthus retroflexus [25]): 85%
Activity [26]: Active
Activity [27]: Active
Activity [28]: Active
inhibition of growth at 750 g/ha (Amaranthus retroflexus [29]): 100%
inhibition of growth at 7.5 g/ha (Amaranthus retroflexus [30]): 32%
inhibition of growth at 75 g/ha [31]: 100%
inhibition of growth at 300 g/ha [32]: 100%
Activity [33]: Active
inhibition of growth at 15 g/ha (Amaranthus retroflexus [34]): 34%
inhibition of growth at 750 g/ha (Digitaria [35]): 100%
inhibition of growth at 750 g/ha [36]: 100%
Activity (Amaranthus retroflexus [37]): Active
Activity [38]: Active
inhibition of growth at 60 g/ha [39]: 100%
Activity (Amaranthus retroflexus [40]): Active
inhibition of growth at 750 g/ha (Digitaria [41]): 6%
Activity [42]: Active
